Results reported in US10865191B2, “Heterocyclic compounds useful as modulators of TNF alpha” (BRISTOL-MYERS SQUIBB COMPANY, priority 2015, dated 2020).

Biological target: TNFα (Homo sapiens, UniProt P01375)
Assay: TNF induced HEK-Blue assay (NF-kB-driven secreted alkaline phosphatase reporter)
Type: cell-based
Details: TNFα 0.5 ng/mL, HEK-Blue-CD40L cells, 18 h; read-out: TNF induced HEK-Blue assay IC50 value
Description: TNF or CD40L-Induced HEK-Blue Assay
Test compounds serially diluted in DMSO were plated in an assay plate (LABCYTE, Cat. # LP-0200) at final concentrations ranging from 0.004 μM to 25 μM. TNFα (final concentration 0.5 ng/mL) or CD40L (final concentration 30 ng/mL) in assay buffer [DMEM, 4.5 g/l glucose (Gibco, Cat. 21063-029), 10% FBS (Sigma, F4135), 1% Penicillin-Streptomycin (Gibco, Cat. 15140-122), 1% Anti-Anti (Gibco, Cat. 15240-112) and 2 mM L-glutamine (Gibco, Cat. 25030-081)] was then added to the assay plate. After a 30 minute pre-incubation at 37° C. and 5% CO2, HEK-Blue™-CD40L cells (INVIVOGEN, Cat. Code hkb-cd40) containing a NF-kB-driven secreted alkaline phosphatase reporter gene were seeded into the assay plate at a density of 20,000 cells per well. This plate was then incubated for 18 h at 37° C. and 5% CO2. Secreted alkaline phosphatase expression was measured using QUANTI-Blue™ (INVIVOGEN, Cat. Code rep-qb1) according to manufacturer's specifications and the assay plate was read on a PerkinElmer Envision at 620 nm.
Inhibition data for the test compound over a range of concentrations was plotted as percentage inhibition of the test compound (100%=maximum inhibition). IC50 values were determined after correcting for background [(sample read-mean of low control)/(mean of high control-mean of low control)] where by the low control is DMSO without stimulation and high control is DMSO with stimulation. The IC50 is defined as the concentration of test compound which produces 50% inhibition and was quantified using the 4 parameter logistic equation to fit the data.

Chain of TNFα (P01375 77-233 limits assumed): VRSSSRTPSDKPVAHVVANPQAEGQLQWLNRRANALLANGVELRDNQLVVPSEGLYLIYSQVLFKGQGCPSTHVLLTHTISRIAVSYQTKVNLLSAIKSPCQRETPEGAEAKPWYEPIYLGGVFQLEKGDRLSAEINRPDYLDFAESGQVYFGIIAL

Row | SMILES | IC50 [nM]
1 | CC(Nc1c(Cl)cnc2ccc(-c3cnc(C(C)(C)O)nc3)cc12)[C@H]1CCCN(C(=O)OC(C)(C)C)C1 (mixture of isomers) [Example 60, (S)-tert-butyl 3-(1-((3-chloro-6-(2-(2-hydroxypropan-2-yl)pyrimidin-5-yl)quinolin-4-yl)amino)ethyl)piperidine-1-carboxylate] | 1000 to 10000
2 | CC(Nc1c(Cl)cnc2ccc(-c3cnc(C(C)(C)O)nc3)cc12)[C@@H]1CCCN(C(=O)OC(C)(C)C)C1 (mixture of isomers) [Example 61, tert-butyl (R)-3-((R)-1-((3-chloro-6-(2-(2-hydroxypropan-2-yl)pyrimidin-5-yl)quinolin-4-yl)amino)ethyl)piperidine-1-carboxylate] | 1000 to 10000
3 | O=C(O)CC1CN(c2ncc(-c3ccc4ncc(Cl)c(N[C@@H](c5ccccc5F)C(F)F)c4c3)cn2)CCN1 (mixture of isomers) [Example 77, 2-(4-(5-(3-chloro-4-(((S)-2,2-difluoro-1-(2-fluorophenyl)ethyl)amino)quinolin-6-yl)pyrimidin-2-yl)piperazin-2-yl) acetic acid] | < 1000
4 | C[C@@H](Nc1c(Cl)cnc2ccc(-c3cnc(N4CCN(C5CCNC5=O)CC4)nc3)cc12)c1ccccc1F (mixture of isomers) [Example 112, 3-(4-(5-(3-chloro-4-(((R)-1-(2-fluorophenyl)ethyl)amino)quinolin-6-yl)pyrimidin-2-yl)piperazin-1-yl)pyrrolidin-2-one] | < 1000
5 | C[C@@H](Nc1c(Cl)cnc2ccc(-c3ccc(C(N)CC(=O)O)cc3)cc12)c1ccccc1F (mixture of isomers) [Example 115, 3-amino-3-(4-(3-chloro-4-(((R)-1-(2-fluorophenyl)ethyl)amino)quinolin-6-yl)phenyl)propanoic acid] | 1000 to 10000
6 | C[C@@H](Nc1c(Cl)cnc2ccc(-c3ccc(CC(N)C(=O)O)cc3)cc12)c1ccccc1F (mixture of isomers) [Example 116, 2-amino-3-(4-(3-chloro-4-(((R)-1-(2-fluorophenyl)ethyl)amino)quinolin-6-yl)phenyl)propanoic acid] | 1000 to 10000
7 | C[C@@H](Nc1c(Cl)cnc2ccc(-c3ccc(C4(N)CC(O)C4)cc3)cc12)c1ccccc1F (mixture of isomers) [Example 119, (R)-3-amino-3-(4-(3-chloro-4-((1-(2-fluorophenyl)ethyl)amino)quinolin-6-yl)phenyl)cyclobutan-1-ol] | < 1000
8 | CC(C)(O)c1ncc(-c2cc3c(N[C@H]4C[C@@H]4c4ccccc4)c(Cl)cnc3cc2F)cn1 (mixture of isomers) [Example 271, 2-(5-(3-chloro-7-fluoro-4-(((1S,2R)-2-phenylcyclopropyl)amino)quinolin-6-yl)pyrimidin-2-yl)propan-2-ol] | 1000 to 10000
9 | COC(=O)C1CCN(c2ncc(-c3cc4c(N[C@H](C)c5ccccc5F)c(Cl)cnc4cc3F)cn2)C1 (mixture of isomers) [Example 281, methyl 1-(5-(3-chloro-7-fluoro-4-(((R)-1-(2-fluorophenyl)ethyl)amino)quinolin-6-yl)pyrimidin-2-yl)pyrrolidine-3-carboxylate] | < 1000
10 | C[C@@H](Nc1c(Cl)cnc2cc(F)c(-c3cnc(N4CCC(C(=O)O)C4)nc3)cc12)c1ccccc1F (mixture of isomers) [Example 282, 1-(5-(3-chloro-7-fluoro-4-(((R)-1-(2-fluorophenyl)ethyl)amino)quinolin-6-yl)pyrimidin-2-yl)pyrrolidine-3-carboxylic acid] | 1000 to 10000
11 | C[C@@H](Nc1c(Cl)cnc2cc(F)c(-c3cnc(N4CCC(C(C)(C)O)C4)nc3)cc12)c1ccccc1F (mixture of isomers) [Example 283, 2-(1-(5-(3-chloro-7-fluoro-4-(((R)-1-(2-fluorophenyl)ethyl)amino)quinolin-6-yl)pyrimidin-2-yl)pyrrolidin-3-yl)propan-2-ol] | < 1000
12 | Cc1nc2ccc(-c3cnc(C(C)(C)O)nc3)cc2c(N[C@H](C)c2cc(C(O)CO)ccc2F)c1Cl (mixture of isomers) [Example 397, 1-(3-((R)-1-((3-chloro-6-(2-(2-hydroxypropan-2-yl)pyrimidin-5-yl)-2-methylquinolin-4-yl)amino)ethyl)-4-fluorophenyl)ethane-1,2-diol] | < 1000
13 | C[C@@H](Nc1c(Cl)cnc2ccc(-c3cnc(C(C)(C)O)nc3)cc12)c1cc(C(O)CO)ccc1F (mixture of isomers) [Example 398, 1-(3-((R)-1-((3-chloro-6-(2-(2-hydroxypropan-2-yl)pyrimidin-5-yl)quinolin-4-yl)amino)ethyl)-4-fluorophenyl)ethane-1,2-diol] | < 1000
14 | C[C@@H](Nc1c(Cl)cnc2ccc(-c3cnc(C(C)(C)O)nc3)cc12)c1cc(CC(O)CO)ccc1F (mixture of isomers) [Example 399, 3-(3-((R)-1-((3-chloro-6-(2-(2-hydroxypropan-2-yl)pyrimidin-5-yl)quinolin-4-yl)amino)ethyl)-4-fluorophenyl)propane-1,2-diol] | < 1000
15 | Cc1nc2ccc(-c3cnc(C(C)(C)O)nc3)cc2c(N[C@@H](c2cc(C(O)CO)ccc2F)C(F)F)c1Cl (mixture of isomers) [Example 402, 1-(3-((S)-1-((3-chloro-6-(2-(2-hydroxypropan-2-yl)pyrimidin-5-yl)-2-methylquinolin-4-yl)amino)-2,2-difluoroethyl)-4-fluorophenyl)ethane-1,2-diol] | < 1000
16 | Cc1nc2ccc(-c3cnc(C(C)(C)O)nc3)cc2c(N[C@H](C)c2cc(C(C)(O)CO)ccc2F)c1Cl (mixture of isomers) [Example 403, 2-(3-((R)-1-((3-chloro-6-(2-(2-hydroxypropan-2-yl)pyrimidin-5-yl)-2-methylquinolin-4-yl)amino)ethyl)-4-fluorophenyl)propane-1,2-diol] | < 1000
17 | Cc1nc2ccc(-c3cnc(C(C)(C)O)nc3)cc2c(N[C@H](C)c2cc(C(C)O)ccc2F)c1Cl (mixture of isomers) [Example 433, 2-(5-(3-chloro-4-(((1R)-1-(2-fluoro-5-(1-hydroxyethyl)phenyl)ethyl)amino)-2-methylquinolin-6-yl)pyrimidin-2-yl)propan-2-ol] | < 1000
18 | CC(Nc1c(Cl)cnc2cc(F)c(-c3ccc(C(O)CO)cc3)cc12)c1cc(C#N)ccc1F (mixture of isomers) [Example 599, 3-(1-((3-chloro-6-(4-(1,2-dihydroxyethyl)phenyl)-7-fluoroquinolin-4-yl)amino)ethyl)-4-fluorobenzonitrile] | < 1000
19 | CC(C)(O)c1ncc(-c2ccc3ncc(Cl)c(NC(CF)c4ccccc4F)c3c2)cn1 (racemic) [Example 10, 2-(5-(3-chloro-4-((2-fluoro-1-(2-fluorophenyl)ethyl)amino)quinolin-6-yl)pyrimidin-2-yl)propan-2-ol] | < 1000
20 | CN(C)CC(Nc1c(Cl)cnc2ccc(-c3cnc(C(C)(C)O)nc3)cc12)c1ccccc1F (racemic) [Example 12, 2-(5-(3-chloro-4-((2-(dimethylamino)-1-(2-fluorophenyl)ethyl)amino)quinolin-6-yl)pyrimidin-2-yl) propan-2-ol] | 1000 to 10000
21 | CC(Nc1c(Cl)cnc2c(Cl)cc(-c3cnc(N4CCNC(=O)C4)nc3)cc12)c1ccccc1F (racemic) [Example 18, 4-(5-(3,8-dichloro-4-((1-(2-fluorophenyl)ethyl)amino)quinolin-6-yl)pyrimidin-2-yl)piperazin-2-one] | 1000 to 10000
22 | CNc1ncc(-c2cc(Cl)c3ncc(Cl)c(NC(C)c4ccccc4F)c3c2)cn1 (racemic) [Example 19, 3,8-dichloro-N-(1-(2-fluorophenyl)ethyl)-6-(2-(methylamino)pyrimidin-5-yl)quinolin-4-amine] | 10000 to 25000
23 | CC(Nc1c(Cl)cnc2c(Cl)cc(-c3cnn(C)c3)cc12)c1ccccc1F (racemic) [Example 20, 3,8-dichloro-N-(1-(2-fluorophenyl)ethyl)-6-(1-methyl-1H-pyrazol-4-yl)quinolin-4-amine] | 10000 to 25000
24 | CC(Nc1c(Cl)cnc2c(Cl)cc(-c3ccc(C(C)(C)O)cc3)cc12)c1ccccc1F (racemic) [Example 21, 2-(4-(3,8-dichloro-4-((1-(2-fluorophenyl)ethyl)amino)quinolin-6-yl)phenyl)propan-2-ol] | 1000 to 10000
25 | CNS(=O)(=O)c1ccc(-c2cc(Cl)c3ncc(Cl)c(NC(C)c4ccccc4F)c3c2)cc1 (racemic) [Example 22, 4-(3,8-dichloro-4-((1-(2-fluorophenyl)ethyl)amino)quinolin-6-yl)-N-methylbenzenesulfonamide] | 10000 to 25000
26 | CCC(Nc1c(Cl)cnc2ccc(-c3cnc(N4CCNC(=O)C4)nc3)cc12)c1nc(C(N)=O)ccc1F (racemic) [Example 23, 6-(1-((3-chloro-6-(2-(3-oxopiperazin-1-yl)pyrimidin-5-yl)quinolin-4-yl)amino)propyl)-5-fluoropicolinamide] | < 1000
